From patent US10597388B2, “Pyridazinone herbicides” (FMC CORPORATION, priority 2014, dated 2020)

Assays:
Test in all cases: Test A greenhouse herbicide test, pre- and postemergence
Assay type in all cases: in vivo
[1] = tested on: pigweed (Amaranthus retroflexus)
How it was run: (§1)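 Seeds sown in loam–sand blend got a preemergence directed soil spray of compound in non-phytotoxic solvent with surfactant. Postemergence treatment was given at 2–10 cm, one- to two-leaf stage. After ~10 d in greenhouse, injury was rated visually vs untreated controls, 0 (no effect) to 100 (complete control).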

[2] = tested on: ryegrass, Italian (Italian ryegrass, Lolium multiflorum)
How it was run: as §1

[3] = tested on: wheat (Triticum aestivum); details: Postemergence; for Wheat plant response rating: 0 to 100 scale, 0 is no effect, 100 is complete control
How it was run: as §1

corn (Zea mays) = details: Postemergence; for Corn plant response rating: 0 to 100 scale, 0 is no effect, 100 is complete control
How it was run: as §1

[4] = tested on: foxtail, giant (giant foxtail, Setaria faberii)
How it was run: as §1

[5] = tested on: ragweed (common ragweed, Ambrosia elatior)
How it was run: as §1

[6] = tested on: barnyardgrass (Echinochloa crus-galli)
How it was run: as §1

kochia (Kochia scoparia) = tested on: kochia (Kochia scoparia)
How it was run: as §1

[7] = Postemergence, 1000 g ai/ha, 0 to 100 scale, 0 is no effect, 100 is complete control
[8] = Preemergence, 1000 g ai/ha, 0 to 100 scale, 0 no effect, 100 complete control
[9] = Postemergence, 125 g ai/ha, 0 to 100 scale where 0 is no effect and 100 is complete control
[10] = Postemergence, 500 g ai/ha, 0 to 100 scale, 0 is no effect, 100 is complete control
[11] = Preemergence, 125 g ai/ha, 0 to 100 scale where 0 is no effect and 100 is complete control
[12] = Preemergence, 500 g ai/ha, 0 to 100 scale where 0 is no effect and 100 is complete control
[13] = 125 g ai/ha, 0 to 100 scale where 0 is no effect and 100 is complete control
[14] = Postemergence, 500 g ai/ha, visual rating after approx. 10 d, 0 to 100 scale (0 no effect, 100 complete control)
[15] = 500 g ai/ha, visual rating after approx. 10 d, 0 to 100 scale (0 no effect, 100 complete control)

Row | SMILES | Plant response rating, Pigweed [1, 9] | Pigweed plant response rating [1, 11] | Plant response rating, Pigweed [1, 12] | Plant response rating, Ryegrass, Italian [2, 9] | Ryegrass, Italian plant response rating [2, 11] | Plant response rating, Ryegrass, Italian [2, 12] | Plant response rating, Wheat [3, 13] | Plant response rating, Corn (corn (Zea mays); [13]) | Plant response rating, Foxtail, Giant [4, 9] | Foxtail, Giant plant response rating [4, 11] | Plant response rating, Foxtail, Giant [4, 12] | Plant response rating, Ragweed [5, 9] | Ragweed plant response rating [5, 11] | Plant response rating, Ragweed [5, 12] | Plant response rating, Barnyardgrass [6, 9] | Barnyardgrass plant response rating [6, 10] | Barnyardgrass plant response rating [6, 11] | Plant response rating, Kochia (kochia (Kochia scoparia); [9]) | Kochia plant response rating (kochia (Kochia scoparia); [11]) | Plant response rating, Kochia (kochia (Kochia scoparia); [12]) | also measured
1 | CCc1ccc2ccccc2c1-c1c(O)c(C)nn(C)c1=O [Compound 32] | – | – | – | – | – | – | – | – | – | – | – | – | – | – | – | – | – | – | – | – | Pigweed plant response rating [1, 7]: 100; Plant response rating, Pigweed [1, 8]: 100; Ryegrass, Italian plant response rating [2, 7]: 100; Plant response rating, Ryegrass, Italian [2, 8]: 100; Wheat plant response rating ([3]; 1000 g ai/ha): 100; Corn plant response rating (corn (Zea mays); 1000 g ai/ha): 50; Foxtail, Giant plant response rating [4, 7]: 90; Plant response rating, Foxtail, Giant [4, 8]: 100; Ragweed plant response rating [5, 7]: 100; Plant response rating, Ragweed [5, 8]: 90; Barnyardgrass plant response rating [6, 7]: 90; Plant response rating, Barnyardgrass [6, 8]: 100; Kochia plant response rating (kochia (Kochia scoparia); [7]): 100; Plant response rating, Kochia (kochia (Kochia scoparia); [8]): 100
2 | CCC(=O)Oc1c(C)nn(C)c(=O)c1-c1c(C)ccc2ccccc12 [Compound 78] | 60 | 60 | 100 | 80 | 100 | 100 | 0 | 0 | 20 | 20 | 60 | 40 | 60 | 90 | 20 | 30 | 0 | 50 | 20 | 100 | Pigweed plant response rating [1, 10]: 90; Ryegrass, Italian plant response rating [2, 10]: 100; Wheat plant response rating ([3]; 500 g ai/ha): 60; Corn plant response rating (corn (Zea mays); 500 g ai/ha): 0; Foxtail, Giant plant response rating [4, 10]: 70; Ragweed plant response rating [5, 10]: 80; Plant response rating, Barnyardgrass ([6]; Preemergence, 500 g ai/ha, 0 to 100 scale, 0 no effect, 100 complete control): 70; Kochia plant response rating (kochia (Kochia scoparia); [10]): 90
3 | Cc1sc2ccccc2c1-c1c(O)c(Cl)nn(C)c1=O [Compound 89] | 80 | 100 | 100 | 80 | 80 | 90 | 0 | 0 | 70 | 50 | 80 | 80 | 80 | 90 | 40 | 80 | 50 | 80 | 70 | 90 | Pigweed plant response rating [1, 10]: 90; Ryegrass, Italian plant response rating [2, 10]: 90; Wheat plant response rating ([3]; 500 g ai/ha): 0; Corn plant response rating (corn (Zea mays); 500 g ai/ha): 0; Foxtail, Giant plant response rating [4, 10]: 80; Ragweed plant response rating [5, 10]: 90; Plant response rating, Barnyardgrass [6, 12]: 60; Kochia plant response rating (kochia (Kochia scoparia); [10]): 90
4 | COC(=O)Oc1cnn(C)c(=O)c1-c1c(C)sc2ccccc12 [Compound 97] | 90 | 100 | 100 | 100 | 100 | 100 | 20 | 10 | 80 | 60 | 100 | 90 | 90 | 100 | 30 | 90 | 20 | 90 | 80 | 100 | Plant response rating, Pigweed [1, 14]: 100; Plant response rating, Ryegrass, Italian [2, 14]: 100; Plant response rating, Wheat [3, 15]: 80; Plant response rating, Corn (corn (Zea mays); [15]): 70; Plant response rating, Foxtail, Giant [4, 14]: 100; Plant response rating, Ragweed [5, 14]: 100; Plant response rating, Barnyardgrass [6, 12]: 100; Plant response rating, Kochia (kochia (Kochia scoparia); [14]): 100
5 | CC(=O)Oc1c(C)nn(C)c(=O)c1-c1c(C)cc(C)c2ccccc12 [Compound 99] | 70 | 100 | 100 | 100 | 100 | 100 | 20 | 20 | 40 | 50 | 80 | 100 | 80 | 80 | 20 | 90 | 60 | 30 | 20 | 70 | Plant response rating, Pigweed [1, 14]: 90; Plant response rating, Ryegrass, Italian [2, 14]: 100; Plant response rating, Wheat [3, 15]: 30; Plant response rating, Corn (corn (Zea mays); [15]): 40; Plant response rating, Foxtail, Giant [4, 14]: 90; Plant response rating, Ragweed [5, 14]: 100; Plant response rating, Barnyardgrass [6, 12]: 90; Plant response rating, Kochia (kochia (Kochia scoparia); [14]): 70
6 | Cc1ccc2ccccc2c1-c1c(O)c(C(F)(F)F)nn(C)c1=O [Compound 102] | 90 | 80 | 100 | 20 | 60 | 60 | 20 | 20 | 70 | 70 | 90 | 100 | 90 | 90 | 40 | 90 | 40 | 20 | 10 | 30 | Plant response rating, Pigweed [1, 14]: 90; Plant response rating, Ryegrass, Italian [2, 14]: 80; Plant response rating, Wheat [3, 15]: 20; Plant response rating, Corn (corn (Zea mays); [15]): 20; Plant response rating, Foxtail, Giant [4, 14]: 90; Plant response rating, Ragweed [5, 14]: 100; Plant response rating, Barnyardgrass [6, 12]: 60; Plant response rating, Kochia (kochia (Kochia scoparia); [14]): 40
7 | CCCC(=O)Oc1c(C)nn(C)c(=O)c1-c1c(CC)sc2ccc(C)cc12 [Compound 107] | 90 | 100 | 100 | 60 | 80 | 100 | 30 | 0 | 70 | 70 | 100 | 90 | 90 | 100 | 60 | 100 | 70 | 80 | 20 | 90 | Plant response rating, Pigweed [1, 14]: 90; Plant response rating, Ryegrass, Italian [2, 14]: 90; Plant response rating, Wheat [3, 15]: 20; Plant response rating, Corn (corn (Zea mays); [15]): 30; Plant response rating, Foxtail, Giant [4, 14]: 90; Plant response rating, Ragweed [5, 14]: 90; Plant response rating, Barnyardgrass [6, 12]: 100; Plant response rating, Kochia (kochia (Kochia scoparia); [14]): 90
8 | CCC(=O)Oc1c(C)nn(C)c(=O)c1-c1ccc(F)c2ccccc12 [Compound 113] | 90 | 100 | 100 | 100 | 100 | 100 | 30 | 20 | 40 | 70 | 100 | 90 | 70 | 90 | 40 | – | 70 | 100 | 90 | 100 | Plant response rating, Pigweed [1, 14]: 100; Plant response rating, Ryegrass, Italian [2, 14]: 100; Plant response rating, Wheat [3, 15]: 70; Plant response rating, Corn (corn (Zea mays); [15]): 70; Plant response rating, Foxtail, Giant [4, 14]: 90; Plant response rating, Ragweed [5, 14]: 100; Plant response rating, Barnyardgrass [6, 14]: 90; Plant response rating, Barnyardgrass [6, 12]: 100; Plant response rating, Kochia (kochia (Kochia scoparia); [14]): 100
